In patent publication US10105378B2, “Enrichment methods for preparing tannic acid compositions” (SyneuRx International (Taiwan) Corp., priority 2016, dated 2018):

Columns and labels:
[1] = target: D-amino acid oxidase (DAAO) (UniProt P14920)
Experimental: The activity of DAAO was determined in vitro by measuring the inhibition of the catabolism of known substrate, D-proline. The cofactor FAD (40 ? M) was added to the DAAO stock solution first. For the assay, potential inhibitors of tannic acid(s) were mixed with reaction mixture containing phosphate buffered saline (137 mM NaCl, 3 mM KCl, 10 mM Na2HPO4, 2 mM NaH2PO4, pH 7.4), horseradish peroxidase (5 U/ml), o-phenylendiamine (OPD, 0.03%), and 0.6 μg human-(or porcine-) DAAO, and incubated for about 5 min. After the pre-incubation period, 40 mM D-proline were added as substrate and the reaction continued for 10 min. OPD was oxidized to form 2,3-diaminophenazine (DAP) by horseradish peroxidase. The absorbance of DAP was measured at 453 nm by a spectrophotometry. Assay was done in serial dilutions of the inhibitors to generate IC50 and analyzed by Prism (Graphpad Software). In the analysis, the spectrophotometry readings were fit to a standard equation to determine the concentration of 50% inhibition (IC50). All enzymatic assays were conducted at room temperature in 96-well plate format.
The DAAO inhibitory activities of subgroups of tannic acids (having a particular number of galloyl moieties) were determined as follows.

[2] = system: MK-801 treated mice; assay: Open field locomotion in MK-801 treated mice (Examples 3, 4); assay type: in vivo, C57BL/6J male mice; details: MK-801 0.1 mg/kg i.p. alone
Experimental: (§1) Each mouse in Groups 2-6 received an acute administration of MK-801 (Sigma-Aldrich, USA) dissolved in normal saline, 0.1 mg/kg, i.p.) 20 minutes prior to the behavioral tests. Each mouse in Groups 3-6 received an acute administration of tannic acids (Sigma-Aldrich, USA; dissolved in PBS, 10, 15, 20 or 30 mg/kg, i.p.) 20 minutes prior to the MK-801 administration.
All mice in this study were tested with open field task and prepulse inhibition task with at least 1-week interval between two tasks. An additional cohort of mice was used to test the effect of different sources of tannic acid on prepulse inhibition.
(§2) Each mouse in Groups 2-5 received an acute administration of MK-801 (Sigma-Aldrich, USA) dissolved in normal saline, 0.1 mg/kg for open field and Barnes maze tasks, and 0.2 mg/kg for prepulse inhibition and sucrose preference tasks by i.p. injection) 20 minutes prior to the behavioral tests. Each mouse in Groups 3-6 received an acute oral administration of tannic acids (Merck Millipore, Germany; dissolved in PBS, 10, 30, or 100 mg/kg, p.o.) 20 minutes prior to the MK-801 administration.
In this test, tannic acids were administered orally 20 minutes before the MK-801 (0.1 mg/kg) injection.

[3] = system: MK-801 treated mice; assay: Prepulse inhibition in MK-801 treated mice (Examples 3, 4); assay type: in vivo, C57BL/6J male mice; details: MK-801 0.2 mg/kg i.p. alone
Experimental: as §1
Prepulse inhibition was used as an index of sensorimotor gating function using SR-LAB startle apparatus (San Diego Instruments, San Diego, Calif., USA). Under 72 dB background noise, each session was composed of 5 minutes accumulation period followed by 64 trials in four blocks. The pulse alone (PA) trial was a 40 ms, 120 dB white noise burst. In the prepulse (pp)+pulse trials, a 20 ms white noise prepulse stimuli of 78 dB (pp6), 82 dB (pp10), and 90 dB (pp18) were presented 100 ms before a 40 ms 120 dB pulse. The non-stimulus (NS) trials presented the background noise only. The initial and the last blocks were composed of six PA trials, respectively. Two middle blocks consisted of PA, pp+pulse, and NS trials. […] The percentage of prepulse inhibition was evaluated by the following formula: % PPI=100×[(PA score)−(pp−P score)]/(PA score), where the PA score was the average of the PA value in the middle blocks. […]

[4] = system: MK-801 treated mice; assay: Sucrose preference (anhedonia) in MK-801 treated mice; assay type: in vivo, C57BL/6J male mice; details: MK-801 0.2 mg/kg i.p. alone
Experimental: as §2
Sucrose preference test has been commonly examined in mouse models of several mental illnesses, including, but not limited to, depression, major depression disorder, anhedonia, negative symptoms of schizophrenia, chronic mild and unpredictable stress (see Anderson et al., 2006; Carvalho et al., 2013; Briones et al., 2011; Der-Avakian and Markou, 2012; Tye et al., 2013; Edwards and Koob, 2012; Brigman et al., 2010; Koo and Duman, 2007; Nestler and Hyman, 2010; Overstreet, 2012; Papp et al., 1991; Santiago et al., 2010; Skalisz et al., 2002; Szczypka et al., 2001; Taylor et al., 2010; Vardigan et al., 2010; Willner et al., 1987; You et al., 2011).

[5] = system: MK-801 treated mice; assay: Open field locomotion in MK-801 treated mice (Example 9); assay type: in vivo, C57BL/6J male mice; details: MK-801 0.2 mg/kg i.p. alone
Experimental: Each mouse in Groups 2-5 received an acute administration of 0.2 mg/kg MK-801 (Sigma-Aldrich, USA) dissolved in normal saline by i.p. injection 20 minutes prior to the locomotion activity test. Each mouse in Groups 3-6 received an acute oral administration of 50 mg/kg tannic acids dissolved in ddH2O by p.o. 20 minutes prior to the MK-801 administration. Tannic acid purchased from Merch Millipore (Merck TA) and from Wufeng Chicheng Biotech (CCBiotech TA), and tannic acid from Enrichment method 10 (Enrichment #10) at 50 mg/kg were used in this study.
The open field task is a common measurement of novelty induced exploratory behavior and general activity in both mice and rats. In this study, the mice were placed in a PLEXIGLAS® cage (37.5 cm×21.5 cm×18 cm) under 50-65 lux light intensity. Their spontaneous locomotor activities were measured for 30 minutes using the SMART video tracking system (Panlab, Harvard Apparatus). The travel distance of each mouse was measured as an index of locomotion activity.

[6] = system: MK-801 treated mice; assay: Prepulse inhibition in MK-801 treated mice (Example 9); assay type: in vivo, C57BL/6J male mice; details: MK-801 0.3 mg/kg i.p. alone
Experimental: Each mouse in Groups 2-4 received an acute administration of 0.3 mg/kg MK-801 (Sigma-Aldrich, USA) dissolved in normal saline by i.p. injection 20 minutes prior to the prepulse inhibitin test. Each mouse in Groups 3-4 received an acute oral administration of 50 or 200 mg/kg Enrichment #10 tannic acids dissolved in ddH2O by p.o. 20 minutes prior to the MK-801 administration.
Prepulse inhibition was used as an index of sensorimotor gating function using SR-LAB startle apparatus (San Diego Instruments, San Diego, Calif., USA). Under 65 dB background noise, each session was composed of 5 minutes accumulation period followed by 64 trials in four blocks. The pulse alone (PA) trial was a 40 ms, 120 dB white noise burst. In the prepulse (pp)+pulse trials, a 20 ms white noise prepulse stimuli of 71 dB (pp6), 75 dB (pp10), and 83 dB (pp18) were presented 100 ms before a 40 ms 120 dB pulse. The non-stimulus (NS) trials presented the background noise only. The initial and the last blocks were composed of six PA trials, respectively. Two middle blocks consisted of PA, pp+pulse, and NS trials. […] The percentage of prepulse inhibition was evaluated by the following formula: % PPI=100×[(PA score)−(pp−P score)]/(PA score), where the PA score was the average of the PA value in the middle blocks

Compound | IC50 ([1]; read-out: IC50 (μM), potency of individual tannic acids, Table 4) | Relative DAAO activity (%) ([1]; samples at 300 nM) | locomotion activity vs control group ([2]; Example 3) | locomotion ([2]; Example 4) | prepulse inhibition vs control group [3] | preference toward the sucrose solution (2%) [4] | locomotion activity vs control group [5] | prepulse inhibition vs control group [6]
O=C(OC[C@H]1OC(OC(=O)c2cc(O)c(O)c(OC(=O)c3cc(O)c(O)c(O)c3)c2)[C@H](OC(=O)c2cc(O)c(O)c(OC(=O)c3cc(O)c(O)c(O)c3)c2)[C@@H](OC(=O)c2cc(O)c(O)c(OC(=O)c3cc(O)c(O)c(O)c3)c2)[C@@H]1OC(=O)c1cc(O)c(O)c(OC(=O)c2cc(O)c(O)c(O)c2)c1)c1cc(O)c(O)c(OC(=O)c2cc(O)c(O)c(O)c2)c1 (some centres unmarked) [10G] | 0.215 µM | 19.25% | – | – | – | – | – | –
C[C@]12N[C@H](Cc3ccccc31)c1ccccc12 [MK-801] | – | – | hyper-locomotion activity | induced hyper-locomotion | induced robust prepulse inhibition deficits | did not show the preference toward the sucrose solution | hyper-locomotion activity | induced robust prepulse inhibition deficits in all prepulse intensities
